Experimental data reported in patent US20240083857A1, “2-Methyl-Quinazolines” (Bayer Pharma Aktiengesellschaft, priority 2017, published 2024).

What was measured:
[1] = target: human SOS1 (nucleotide exchange of K-Ras^G12C) (Homo sapiens, UniProt Q07889); assay: Biochemical assay 2: K-Ras^G12C activation assay by hSOS1 at high GTP concentration (HTRF); details: high GTP; for IC50: read-out: Assay 2 (KRAS-Activation by SOS high GTP) activity expressed as IC50
[2] = target: K-Ras^G12C : hSOS1 interaction (Homo sapiens, UniProt Q07889); assay: Biochemical assay 1: K-Ras^G12C interaction assay with hSOS1 (HTRF); assay type: binding; details: read-out: Assay 1 (KRAS-SOS Interaction) activity expressed as IC50

COc1cc2nc(C)nc(N[C@H](C)c3ccc(-c4ccccc4CCN)s3)c2cc1OC (stereo in doubt) [Example 357, N-[1-{5-[2-(2-aminoethyl)phenyl]thiophen-2-yl}ethyl]-6,7-dimethoxy-2-methylquinazolin-4-amine]
IC50 [1]: 0.0488 µM | IC50 [2]: 0.0512 µM

COc1cc2nc(C)nc(NC(C)c3ccc(-c4ccccc4[C@@H](C)NC(=O)OC(C)(C)C)s3)c2cc1OC (stereo in doubt) [Example 358, tert-butyl {1-[2-(5-{1-[(6,7-dimethoxy-2-methylquinazolin-4-yl)amino]ethyl}thiophen-2-yl)phenyl]ethyl}carbamate]
IC50 [1]: 1.53 µM | IC50 [2]: 1.44 µM

COc1cc2nc(C)nc(NC(C)c3ccc(-c4ccccc4[C@@H](C)N)s3)c2cc1OC (stereo in doubt) [Example 359, N-[1-(5-{2-[1-aminoethyl]phenyl}thiophen-2-yl)ethyl]-6,7-dimethoxy-2-methylquinazolin-4-amine]
IC50 [1]: 0.2 µM | IC50 [2]: 0.234 µM

COc1cc2nc(C)nc(NC(C)c3ccc(-c4ccccc4[C@H](C)N)s3)c2cc1OC (stereo in doubt) [Example 360, N-[1-(5-{2-[1-aminoethyl]phenyl}thiophen-2-yl)ethyl]-6,7-dimethoxy-2-methylquinazolin-4-amine]
IC50 [1]: 0.141 µM | IC50 [2]: 0.195 µM

COc1cc2nc(C)nc(NC(C)c3cccc4c3CCO4)c2cc1OC (centres unmarked) [Example 22, N-[1-(2,3-dihydro-1-benzofuran-4-yl)ethyl]-6,7-dimethoxy-2-methylquinazolin-4-amine]
IC50 [1]: 0.219 µM | IC50 [2]: 0.177 µM

COc1cc2nc(C)nc(NC(C)c3ccc4c(c3)OCO4)c2cc1OC (centres unmarked) [Example 23, N-[1-(1,3-benzodioxol-5-yl)ethyl]-6,7-dimethoxy-2-methylquinazolin-4-amine]
IC50 [1]: 1.85 µM | IC50 [2]: 2.72 µM

COc1cc2nc(C)nc(NC(C)c3ccc4c(c3)CCO4)c2cc1OC (centres unmarked) [Example 24, N-[1-(2,3-dihydro-1-benzofuran-5-yl)ethyl]-6,7-dimethoxy-2-methylquinazolin-4-amine]
IC50 [1]: 1.22 µM | IC50 [2]: 0.701 µM

COc1cc2nc(C)nc(NC(C)c3ccc4c(c3)CCCC4)c2cc1OC (centres unmarked) [Example 25, 6,7-dimethoxy-2-methyl-N-[1-(5,6,7,8-tetrahydronaphthalen-2-yl)ethyl]quinazolin-4-amine]
IC50 [1]: 0.85 µM | IC50 [2]: 0.541 µM

COc1cc2nc(C)nc(NC(C)c3c(C)nc4ccccn34)c2cc1OC (centres unmarked) [Example 26, 6,7-dimethoxy-2-methyl-N-[1-(2-methylimidazo[1,2-a]pyridin-3-yl)ethyl]quinazolin-4-amine]
inhibition at 20 µM ([1]; read-out: Assay 2 (KRAS-Activation by SOS high GTP) activity expressed as % inhibition at 20 μM, at 20 μM): 52% | IC50 [2]: 9.55 µM

COc1cc2nc(C)nc(NC(C)c3csc4ccccc34)c2cc1OC (centres unmarked) [Example 27, N-[1-(1-benzothiophen-3-yl)ethyl]-6,7-dimethoxy-2-methylquinazolin-4-amine]
IC50 [1]: 0.402 µM | IC50 [2]: 0.368 µM

Cc1nc(N[C@H](C)c2ccccc2)c2cc(N=S(C)(C)=O)ccc2n1 [Example 30, 6-{[dimethyl(oxido)-lambda6-sulfanylidene]amino}-2-methyl-N-[(1R)-1-phenylethyl]quinazolin-4-amine]
IC50 [1]: 1.1 µM | IC50 [2]: 1.34 µM

Cc1nc(N[C@H](C)c2ccc(F)cc2)c2cc(N=S(C)(C)=O)ccc2n1 [Example 32, 6-{[dimethyl(oxido)-lambda6-sulfanylidene]amino}-N-[(1R)-1-(4-fluorophenyl)ethyl]-2-methylquinazolin-4-amine]
IC50 [1]: 1.4 µM | IC50 [2]: 1.07 µM

COc1cc2nc(C)nc(NC(C)c3ccc4c(c3)NC(=O)CO4)c2cc1OC (centres unmarked) [Example 34, 6-{1-[(6,7-dimethoxy-2-methylquinazolin-4-yl)amino]ethyl}-2H-1,4-benzoxazin-3(4H)-one]
IC50 [1]: 3.71 µM | IC50 [2]: 4.23 µM

COc1ccc2cc(C(C)Nc3nc(C)nc4cc(OC)c(OC)cc34)ccc2c1 (centres unmarked) [Example 35, 6,7-dimethoxy-N-[1-(6-methoxy-2-naphthyl)ethyl]-2-methylquinazolin-4-amine]
IC50 [1]: 4.78 µM | IC50 [2]: 4.72 µM

COc1cc2nc(C)nc(N[C@H](C)c3cccc(-c4ccc(O)nc4)c3)c2cc1OC [Example 68, 5-(3-{(1R)-1-[(6,7-dimethoxy-2-methylquinazolin-4-yl)amino]ethyl}phenyl)pyridin-2-ol]
IC50 [1]: 0.486 µM | IC50 [2]: 0.137 µM

COc1cc2nc(C)nc(N[C@H](C)c3cccc(-n4cccn4)c3)c2cc1OC [Example 341, 6,7-dimethoxy-2-methyl-N-{(1R)-1-[3-(1H-pyrazol-1-yl)phenyl]ethyl}quinazolin-4-amine]
IC50 [1]: 3.73 µM | IC50 [2]: 2.83 µM

COc1cc2nc(C)nc(N[C@H](C)c3cccc(Br)c3)c2cc1OCc1ccccc1 [Example 343, 6-(benzyloxy)-N-[(1R)-1-(3-bromophenyl)ethyl]-7-methoxy-2-methylquinazolin-4-amine]
IC50 [1]: 1.61 µM | IC50 [2]: 1.68 µM

COc1cc2nc(C)nc(N[C@H](C)c3cccc(-c4cn[nH]c4)c3)c2cc1OCc1ccccc1 [Example 344, 6-(benzyloxy)-7-methoxy-2-methyl-N-{(1R)-1-[3-(1H-pyrazol-4-yl)phenyl]ethyl}-quinazolin-4-amine]
IC50 [1]: 1.19 µM | IC50 [2]: 0.931 µM

COc1cc2nc(C)nc(N[C@H](C)c3cccc(-c4cn[nH]c4)c3)c2cc1O [Example 345, 7-methoxy-2-methyl-4-({(1R)-1-[3-(1H-pyrazol-4-yl)phenyl]ethyl}amino)quinazolin-6-ol]
IC50 [1]: 7.84 µM | IC50 [2]: 14.6 µM

COc1cc2nc(C)nc(N[C@H](C)c3cccc(-c4cn[nH]c4)c3)c2cc1OCC1CC1 [Example 346, 6-(cyclopropylmethoxy)-7-methoxy-2-methyl-N-{(1R)-1-[3-(1H-pyrazol-4-yl)phenyl]ethyl}quinazolin-4-amine]
IC50 [1]: 0.395 µM | IC50 [2]: 0.342 µM

COCCOc1cc2c(N[C@H](C)c3cccc(-c4cn[nH]c4)c3)nc(C)nc2cc1OC [Example 348, 7-methoxy-6-(2-methoxyethoxy)-2-methyl-N-{(1R)-1-[3-(1H-pyrazol-4-yl)phenyl]-ethyl}quinazolin-4-amine]
IC50 [1]: 0.816 µM | IC50 [2]: 0.693 µM

CC[C@@H](O)c1ccccc1-c1ccc(C(C)Nc2nc(C)nc3cc(OC)c(OC)cc23)s1 (stereo partly drawn) [Example 349, (1R)-1-[2-(5-{1-[(6,7-dimethoxy-2-methylquinazolin-4-yl)amino]ethyl}thiophen-2-yl)phenyl]propan-1-ol]
IC50 [1]: 0.649 µM | IC50 [2]: 0.231 µM

CCCCOc1cc2c(N[C@H](C)c3cccc(-c4cn[nH]c4)c3)nc(C)nc2cc1OC [Example 350, 6-butoxy-7-methoxy-2-methyl-N-{(1R)-1-[3-(1H-pyrazol-4-yl)phenyl]ethyl}quinazolin-4-amine]
IC50 [1]: 0.736 µM | IC50 [2]: 0.688 µM

COc1cc2nc(C)nc(N[C@H](C)c3cccc(-c4cn[nH]c4)c3)c2cc1OCCC(C)C [Example 351, 7-methoxy-2-methyl-6-(3-methylbutoxy)-N-{(1R)-1-[3-(1H-pyrazol-4-yl)phenyl]ethyl}quinazolin-4-amine]
IC50 [1]: 1.2 µM | IC50 [2]: 1.71 µM

COc1cc2nc(C)nc(NC(C)c3ccc(-c4ccccc4CCNC(=O)OC(C)(C)C)s3)c2cc1OC (centres unmarked) [Example 352, tert-butyl {2-[2-(5-{1-[(6,7-dimethoxy-2-methylquinazolin-4-yl)amino]ethyl}thiophen-2-yl)phenyl]ethyl}carbamate]
IC50 [1]: 12.2 µM | IC50 [2]: 16 µM
